Entries after “also recorded” stand apart in the source; their conditions may differ.
Experiments:
[1] = system: neutral sphingomyelinase (nSMase); assay: nSMase-mediated ceramide release in TNF-α-treated neuroblastomas; format: cell-based; settings: neuroblastomas treated with TNF-α in conjunction with citrate or malate at 0.5 μg/ml
Method: Neuroblastomas were not treated (NT) or treated with tumor necrosis factor α (TNF-α), either alone or in conjunction with citrate or malate at 0.5 μg/ml.
Ceramides and ceramide metabolites are important intracellular signaling molecules which influence inflammation, proliferative and apoptotic processes, neurodegeneration, and insulin sensitivity. Elevated ceramides are associated with neurodegenerative disorders including Alzheimer's and Parkinson's disease as well as normal aging.

Fischer F344 inbred rats = assay: Spatial memory, rewarded alternation in T-maze, aged rats; format: in vivo; settings: for T-maze alternation: 200 mg/Kg in water, 6 weeks supplementation; for spatial memory vs control rats: aged F344 rats, 200 mg/Kg, T-maze
Method: Spatial memory was measured by alternation in a T-maze. […] Both aged groups supplemented with malic acid performed equivalently to non-impaired rats, at 85% correct alternation, or better.
24 male Fischer F344 inbred rats were evaluated at 10 months and 23 months of age. Half were provided supplemental dietary malate. Following 6 weeks supplementation, spatial memory was evaluated using a rewarded alternation procedure in a T-maze apparatus (10 trials per subject). Healthy, non-impaired, rats alternate at 85% while hippocampectomized rats incapable of encoding spatial memories alternate at chance, 50%. […] The 23 month old, control, rats were severely impaired, hardly scoring better than chance, at 57% alternation. 23 month old malate-supplemented rats alternated at 85%, a score equivalent to a young, not impaired rat. (FIG. 10).

[2] = Tolerability of oral malate in aged rats; format: in vivo; settings: 24 aged rats, 200 mg/Kg orally, voluntary consumption in water
[3] = system: SH-SY5Y human neuroblastoma cells; assay: Intracellular malate after malate pretreatment and peroxide insult; format: cell-based
Method: Intracellular malate decreases 20% in the first 30 minutes following peroxide treatment and continues to slowly decrease over the rest of the time course. SH-SY5Y human neuroblastoma cells were grown to 90% confluency on 100 mm tissue culture dishes in 10% FBS supplemented DMEM, serum starved for 12 hours, and treated with 100 μM H2O2 in serum free DMEM for either 0, 15, 30, 45, 60, or 90 minutes. All treatments were performed in triplicate. Following treatment, neurons were rinsed with PBS, harvested and evaluated for total […] via abcam malate assay kit (ab83391). […] Cells were treated with 0.5 μg/mL malate in serum free DMEM for 1 hour prior to peroxide insult. Malate supplementation increased intracellular malate by nearly 50%.

[4] = system: SH-SY5Y human neuroblastoma cells; assay: Intracellular GSH after malate pretreatment and peroxide insult; format: cell-based; settings: 0.5 μg/mL malate for 1 hour prior to peroxide insult
Method: GSH is widely considered the cornerstone of endogenous redox defense. Intracellular concentrations of total GSH clearly decrease in response to oxidative insult, confirming GSH is actively consumed as part of the endogenous redox defense response in human neurons, specifically to produce regenerate antioxidative enzymes. […] All treatments were performed in triplicate. Following treatment, neurons were rinsed with PBS and evaluated for total GSH (excluding GSSG) via Promega GSH-Glo Glutathione Assay. The assay is based on the conversion of a lucifin derivative into lucifierin in the presence of GSH. […] Cells were treated with 0.5 μg/mL malate in serum free DMEM for 1 hour prior to peroxide insult.

SMILES | nSMase-mediated ceramide release / nSMase activation [1] | nSMase-mediated ceramide release / nSMase activation ([1]; listed as Citrate) | T-maze alternation (Fischer F344 inbred rats; 10 month old F344 rats) [%] | T-maze alternation (Fischer F344 inbred rats; 23 month old F344 rats) [%] | spatial memory vs control rats (Fischer F344 inbred rats) | spatial memory vs control rats (Fischer F344 inbred rats; listed as malic acid) | T-maze correct alternation (Fischer F344 inbred rats; both aged groups (10 and 23 months), oral 200 mg/Kg) [%] | ill effects observed [2] | intracellular malate after peroxide insult ([3]; 0.5 μg/mL malate for 1 hour prior to peroxide insult) | increase of intracellular malate ([3]; 0.5 μg/mL malate in serum free DMEM for 1 hour) [%] | intracellular GSH after peroxide insult [4] | intracellular GSH vs non-supplemented cells ([4]; 0-60 minutes post peroxide)
O=C(O)CC(O)(CC(=O)O)C(=O)O [citrate, citric acid] | able to curb nSMase activation | significantly decrease | – | – | – | – | – | – | – | – | – | –
O=C(O)CC(O)C(=O)O (stereo not shown) [malate, malic acid] | significantly decrease; also recorded: able to curb nSMase activation | – | 92.5 | 85 | statistically significant improvement in spatial memory | significantly improves performance in spatial memory | ≥ 85 | no ill effects were observed | higher levels than non-treated and non-insulted cells; also recorded: prevent critical depletion of malate | ~50 | higher levels of GSH than non-treated and non-insulted cells; also recorded: prevent critical depletion of GSH | significantly higher levels of GSH than non-supplemented cells; also recorded: increase intracellular pools of GSH
